Assay: xn = mol fraction of the nth substance listed
Details: Fluid (supercritical or subcritical phases), Buoyancy - hydrostatic balance with magnetic suspension - one sinker

[Ar] [argon] + O=C=O
Details	mass density [kg/m3]
298.12 K, 30871 kPa, x1 = 0.99	502.471
298.17 K, 30944 kPa, x1 = 0.95	514.698
298.18 K, 28957 kPa, x1 = 0.99	476.725
298.19 K, 10975 kPa, x1 = 0.99	187.045
298.19 K, 12973 kPa, x1 = 0.99	222.038
298.19 K, 14969 kPa, x1 = 0.99	256.759
298.19 K, 16969 kPa, x1 = 0.99	291.075
298.19 K, 18969 kPa, x1 = 0.99	324.674
298.19 K, 26962 kPa, x1 = 0.99	448.747
298.2 K, 20967 kPa, x1 = 0.99	357.351
298.2 K, 22966 kPa, x1 = 0.99	389.003
298.2 K, 24964 kPa, x1 = 0.99	419.491
298.22 K, 10976 kPa, x1 = 0.95	190.182
298.23 K, 12976 kPa, x1 = 0.95	226.201
298.23 K, 14974 kPa, x1 = 0.95	261.987
298.23 K, 16969 kPa, x1 = 0.95	297.274
298.23 K, 18970 kPa, x1 = 0.95	331.923
298.23 K, 20969 kPa, x1 = 0.95	365.576
298.23 K, 22968 kPa, x1 = 0.95	398.09
298.23 K, 24967 kPa, x1 = 0.95	429.349
298.23 K, 26965 kPa, x1 = 0.95	459.226
298.23 K, 28963 kPa, x1 = 0.95	487.701
323.2 K, 10978 kPa, x1 = 0.99	168.714
323.2 K, 24965 kPa, x1 = 0.99	375.34
323.2 K, 30955 kPa, x1 = 0.99	452.317
323.21 K, 14970 kPa, x1 = 0.99	230.302
323.21 K, 16971 kPa, x1 = 0.99	260.652
323.21 K, 18969 kPa, x1 = 0.99	290.39
323.21 K, 20969 kPa, x1 = 0.99	319.49
323.21 K, 22966 kPa, x1 = 0.99	347.807
323.21 K, 26962 kPa, x1 = 0.99	401.924
323.21 K, 28960 kPa, x1 = 0.99	427.589
323.22 K, 12973 kPa, x1 = 0.99	199.627
323.24 K, 24968 kPa, x1 = 0.95	382.594
323.24 K, 30958 kPa, x1 = 0.95	460.997
323.25 K, 16970 kPa, x1 = 0.95	265.1
323.25 K, 22969 kPa, x1 = 0.95	354.46
323.25 K, 28963 kPa, x1 = 0.95	435.856
323.26 K, 10976 kPa, x1 = 0.95	170.993
323.26 K, 12974 kPa, x1 = 0.95	202.641
323.26 K, 14973 kPa, x1 = 0.95	234.077
323.27 K, 18969 kPa, x1 = 0.95	295.579
323.27 K, 20973 kPa, x1 = 0.95	325.456
323.27 K, 26965 kPa, x1 = 0.95	409.68
348.21 K, 14972 kPa, x1 = 0.99	209.619
348.21 K, 16970 kPa, x1 = 0.99	236.897
348.21 K, 18972 kPa, x1 = 0.99	263.764
348.22 K, 20972 kPa, x1 = 0.99	290.057
348.22 K, 30956 kPa, x1 = 0.99	411.615
348.23 K, 28960 kPa, x1 = 0.99	388.704
348.24 K, 26963 kPa, x1 = 0.99	365.062
348.25 K, 10977 kPa, x1 = 0.99	154.064
348.25 K, 12974 kPa, x1 = 0.99	181.967
348.25 K, 24966 kPa, x1 = 0.99	340.708
348.25 K, 30958 kPa, x1 = 0.95	418.385
348.26 K, 22968 kPa, x1 = 0.99	315.675
348.28 K, 18972 kPa, x1 = 0.95	267.685
348.28 K, 20972 kPa, x1 = 0.95	294.53
348.28 K, 28962 kPa, x1 = 0.95	395.094
348.29 K, 22970 kPa, x1 = 0.95	320.729
348.29 K, 26966 kPa, x1 = 0.95	371.043
348.3 K, 10979 kPa, x1 = 0.95	155.9
348.3 K, 12976 kPa, x1 = 0.95	184.3
348.3 K, 14972 kPa, x1 = 0.95	212.437
348.3 K, 16971 kPa, x1 = 0.95	240.266
348.31 K, 24969 kPa, x1 = 0.95	346.237

Source: the NIST ThermoML archive (doi:10.1016/j.jct.2015.07.014)
